# Test results as given in patent US6159733A, “Method for photoinactivating malignant cells” (priority 1996, dated 2000).
# Legend:
# CFU-GM = settings: 15 nM Pc 4, 5×10^6 cells/mL, 8 J/cm^2; cited from earlier work
# HL-60 = settings: 15 nM Pc 4, 5×10^6 cells/mL, 8 J/cm^2; cited from earlier work
# [1] = system: pluripotent stem cells (c-kit^+,Sca-1^+); assay: Uptake of Pc 4, flow cytometry; assay type: cell-based, murine; settings: for Pc 4 content / Pc 4 content per cell volume: 15 nM
# Protocol: (§1) In mixing experiments, aliquots of Ly-5.2 BM and cell lines samples were mixed at different ratios. The combined cell concentration of each sample was 1.5×10^7 cells/mL. […] The cell lines were stained with anti-Ly-5.1^FITC. This treatment allowed clear resolution of the relatively small ABE-8.1/2 and BC3A cells from the bone marrow granulocytes. Immediately prior to the analyses, propidium iodide (PI, 0.5 μg/mL) was added to the samples to allow exclusion of dead cells (PI^+) from the analyses. The samples were analyzed in a FACStar^PLUS (BD) that was equipped with an argon ion laser tuned to 488 nm (200 mW) and a dye laser tuned to 610 nm (300 mW). FITC, PE, PI and Pc 4 fluorescence emissions were collected through 530/30, 575/42, 660/10, 670/10 nm band pass filters, respectively.
# (§2) Cell size. Microscopic measurements of at least 20 cells were performed using a calibrated micrometer. To determine the cell size of the BM progenitor subsets, the c-kit^+,Sca-1^- and c-kit^+,Sca-1^+ fractions were sorted. The sorted cells were centrifuged and the pellets were resuspended in a 20 μl of HBBS. Samples were deposited onto microscope slides and covered with a cover slip. Cell diameters of 7.7±0.2 (c-kit^+,Sca-1^+), 8.4±0.3 (c-kit^+,Sca-1^-), 10.9±0.2 (BC3A), 11.1±0.2 (ABE-8.1/2), 13.0±0.3 (L1210), 14.2±0.3 (P815), 15.0±0.4 μm (WEHI-3) were obtained.
# [2] = system: progenitor cells (c-kit^+,Sca-1^-); assay: Uptake of Pc 4, flow cytometry; assay type: cell-based, murine
# Protocol: as §1, §2
# V79 = settings: cited from earlier work
# P815 cells = assay: Uptake of Pc 4, flow cytometry; assay type: cell-based, murine; settings: for Pc 4 content / Pc 4 content per cell volume: 15 nM
# Protocol: (§3) Cell lines and culture conditions. WEHI-3 (murine myelocytic leukemia), L1210 (murine lymphocytic leukemia) and P815 (murine mastocytoma) cells were grown in RPMI 1640 (GibcoBRL, Grand Island, N.Y.) supplemented with 10% FBS. BC3A (murine leukemia) cells were grown in RPMI 1640 supplemented with 10 μM β-mercaptoethanol and 10% FBS; ABE-8.1/2 (murine pre-B lymphoma) cells were grown in DMEM (GibcoBRL)--10 μM β-mercaptoethanol--10% FBS. All cell lines were obtained from the American Type Culture Collection (Rockville, Md.) and were cultured at 37° C. in a humidified 5% CO2 -incubator. Prior to incubation with Pc 4, the cell lines were centrifuged and resuspended in phosphate buffered saline (PBS)--10% FBS, pH 7.4.
# as §1, §2
# ABE-8.1/2 cells = assay: Uptake of Pc 4, flow cytometry; assay type: cell-based, murine; settings: for Pc 4 content / Pc 4 content per cell volume: 15 nM
# Protocol: as §3, §1, §2
# BC3A cells = assay: Uptake of Pc 4, flow cytometry; assay type: cell-based, murine
# Protocol: as §3, §1, §2
# WEHI-3 cells = assay: Uptake of Pc 4, flow cytometry; assay type: cell-based, murine; settings: for Pc 4 content / Pc 4 content per cell volume: 15 nM
# Protocol: as §3, §1, §2
# L1210 cells = assay: Uptake of Pc 4, flow cytometry; assay type: cell-based, murine; settings: for Pc 4 content / Pc 4 content per cell volume: 15 nM
# Protocol: as §3, §1, §2
# [3] = 1.5×10^6 cells/ml during incubation
# [4] = 1.5×10^7 cells/ml during incubation
# [5] = 15 nM, 1.5×10^6 cells/ml during incubation
# [6] = 15 nM, 1.5×10^7 cells/ml during incubation
# [7] = from 8.0×10^5 to 1.5×10^7 cells/mL
smiles,measurement,setting,value
"CN(C)CCC[Si](C)(C)O[Si]1(O)n2c3c4ccccc4c2N=C2N=C(N=c4c5ccccc5c(n41)=NC1=NC(=N3)c3ccccc31)c1ccccc12 (stereo not drawn) [Pc 4, hydroxysiloxy-dimethylpropyl-N-dimethyl silicon phthalocyanine]",surviving fraction of human cells,CFU-GM,1.0
same,surviving fraction of human cells,HL-60,< 10^-5
same,Pc 4 content,[1]; [3],109 ± 6.5 Mean fluorescence/cell
same,Pc 4 content per cell volume,[1]; [3],0.50 Mean fluorescence/μm^3
same,Pc 4 content,[1]; [4],54 ± 6.9 Mean fluorescence/cell
same,Pc 4 content per cell volume,[1]; [4],0.23 Mean fluorescence/μm^3
same,"difference in Pc 4 content, pluripotent stem cells vs committed progenitors",[1]; 1.5×10^7 cells/mL (p=0.26),not significant
same,Pc 4 content,[2]; [5],136 ± 7.8 Mean fluorescence/cell
same,Pc 4 content per cell volume,[2]; [5],0.44 Mean fluorescence/μm^3
same,Pc 4 content,[2]; [6],68 ± 8.2 Mean fluorescence/cell
same,Pc 4 content per cell volume,[2]; [6],0.22 Mean fluorescence/μm^3
same,cell concentration at which uptake reached a plateau,"[2]; 15 nM, BM progenitor cells",8.0×10^5 cells/mL
same,"difference in Pc 4 content, committed progenitors vs ABE-8.1/2",[2]; 1.5×10^7 cells/mL (p=0.07),not quite significant
same,"difference in Pc 4 content, committed progenitors vs BC3A",[2]; 1.5×10^7 cells/mL (p=0.29),not significant
same,reduction of Pc 4 uptake,"[2]; BM progenitors, from 8.0×10^5 to 1.5×10^7 cells/mL",1.8 fold
same,photoinactivation of V79 cells,V79,effectively photoinactivate
same,Pc 4 content,P815 cells; [3],414 ± 21.5 Mean fluorescence/cell
same,Pc 4 content per cell volume,P815 cells; [3],0.28 Mean fluorescence/μm^3
same,Pc 4 content,P815 cells; [4],152 ± 17.2 Mean fluorescence/cell
same,Pc 4 content per cell volume,P815 cells; [4],0.10 Mean fluorescence/μm^3
same,reduction of Pc 4 uptake,P815 cells; [7],2.8 fold
same,Pc 4 content,ABE-8.1/2 cells; [3],218 ± 29.0 Mean fluorescence/cell
same,Pc 4 content per cell volume,ABE-8.1/2 cells; [3],0.30 Mean fluorescence/μm^3
same,Pc 4 content,ABE-8.1/2 cells; [4],95 ± 7.6 Mean fluorescence/cell
same,Pc 4 content per cell volume,ABE-8.1/2 cells; [4],0.13 Mean fluorescence/μm^3
same,reduction of Pc 4 uptake,ABE-8.1/2 cells; [7],2.5 fold
same,cell concentration at which uptake reached a plateau,BC3A cells; 15 nM,8.0×10^5 cells/mL
same,Pc 4 content,BC3A cells; [5],137 ± 11.3 Mean fluorescence/cell
same,Pc 4 content per cell volume,BC3A cells; [5],0.20 Mean fluorescence/μm^3
same,Pc 4 content,BC3A cells; [6],80 ± 5.5 Mean fluorescence/cell
same,Pc 4 content per cell volume,BC3A cells; [6],0.12 Mean fluorescence/μm^3
same,reduction of Pc 4 uptake,BC3A cells; [7],1.6 fold
same,Pc 4 content,WEHI-3 cells; [3],296 ± 8.5 Mean fluorescence/cell
same,Pc 4 content per cell volume,WEHI-3 cells; [3],0.17 Mean fluorescence/μm^3
same,Pc 4 content,WEHI-3 cells; [4],57 ± 4.7 Mean fluorescence/cell
same,Pc 4 content per cell volume,WEHI-3 cells; [4],0.03 Mean fluorescence/μm^3
same,reduction of Pc 4 uptake,WEHI-3 cells; [7],5.1 fold
same,Pc 4 content,L1210 cells; [3],291 ± 14.0 Mean fluorescence/cell
same,Pc 4 content per cell volume,L1210 cells; [3],0.25 Mean fluorescence/μm^3
same,Pc 4 content,L1210 cells; [4],124 ± 4.2 Mean fluorescence/cell
same,Pc 4 content per cell volume,L1210 cells; [4],0.11 Mean fluorescence/μm^3
same,reduction of Pc 4 uptake,L1210 cells; [7],2.5 fold
